Article PMC7252619 (PLoS ONE, 2020)
Like-named read-outs stand apart in the source and are kept apart here.

Columns and labels:
Assay in all cases: Kinase activity test (ReactionBiology), % enzyme activity relative to DMSO
Format in all cases: biochemical
[1] = target: T1, DAPK1 (Homo sapiens, UniProt P53355); settings: DAPK1; for % Enzyme Activity (relative to DMSO controls), Data 1: replicate Data 1; for % Enzyme Activity (relative to DMSO controls), Data 2: replicate Data 2
T1 construct: purchased ReactionBiology
T1 sequence (P53355 whole entry): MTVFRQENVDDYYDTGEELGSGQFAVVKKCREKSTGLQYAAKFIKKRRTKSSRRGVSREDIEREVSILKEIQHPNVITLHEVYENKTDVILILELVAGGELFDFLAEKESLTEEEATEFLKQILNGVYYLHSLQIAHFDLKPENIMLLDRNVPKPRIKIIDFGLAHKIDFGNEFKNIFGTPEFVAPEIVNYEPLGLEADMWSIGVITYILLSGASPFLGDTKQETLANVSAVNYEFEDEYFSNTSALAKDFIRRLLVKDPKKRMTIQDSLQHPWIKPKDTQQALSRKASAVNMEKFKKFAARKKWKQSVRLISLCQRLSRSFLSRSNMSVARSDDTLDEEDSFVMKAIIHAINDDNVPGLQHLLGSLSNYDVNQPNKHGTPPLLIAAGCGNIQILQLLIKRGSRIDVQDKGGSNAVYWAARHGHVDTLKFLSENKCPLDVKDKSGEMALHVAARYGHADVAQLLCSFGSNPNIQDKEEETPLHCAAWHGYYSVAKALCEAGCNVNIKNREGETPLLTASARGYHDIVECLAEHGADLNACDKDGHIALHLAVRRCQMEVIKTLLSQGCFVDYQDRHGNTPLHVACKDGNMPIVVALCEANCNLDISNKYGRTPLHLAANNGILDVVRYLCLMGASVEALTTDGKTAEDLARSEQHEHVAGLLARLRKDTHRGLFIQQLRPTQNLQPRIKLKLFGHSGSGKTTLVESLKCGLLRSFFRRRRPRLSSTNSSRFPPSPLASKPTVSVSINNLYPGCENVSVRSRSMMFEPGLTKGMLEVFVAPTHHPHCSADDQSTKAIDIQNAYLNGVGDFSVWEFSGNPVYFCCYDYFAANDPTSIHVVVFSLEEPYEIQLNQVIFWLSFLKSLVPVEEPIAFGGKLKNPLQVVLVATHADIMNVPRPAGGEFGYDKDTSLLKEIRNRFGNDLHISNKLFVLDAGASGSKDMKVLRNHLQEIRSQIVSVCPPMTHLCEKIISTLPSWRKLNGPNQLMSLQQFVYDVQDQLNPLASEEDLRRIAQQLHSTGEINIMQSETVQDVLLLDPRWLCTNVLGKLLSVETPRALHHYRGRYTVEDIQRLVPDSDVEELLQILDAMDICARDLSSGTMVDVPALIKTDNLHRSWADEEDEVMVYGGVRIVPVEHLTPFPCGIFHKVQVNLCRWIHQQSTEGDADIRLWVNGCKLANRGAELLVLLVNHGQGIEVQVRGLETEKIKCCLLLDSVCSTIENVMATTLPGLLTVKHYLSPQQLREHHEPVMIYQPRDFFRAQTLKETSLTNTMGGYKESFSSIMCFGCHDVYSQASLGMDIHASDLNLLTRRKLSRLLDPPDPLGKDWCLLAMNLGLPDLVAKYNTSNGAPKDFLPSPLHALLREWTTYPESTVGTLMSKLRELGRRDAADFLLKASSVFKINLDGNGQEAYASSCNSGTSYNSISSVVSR

[2] = target: T2, CDC7 (Homo sapiens, UniProt O00311); settings: CDC7; for % Enzyme Activity (relative to DMSO controls), Data 1: replicate Data 1; for % Enzyme Activity (relative to DMSO controls), Data 2: replicate Data 2;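 as to all read-outs here: each drug screened at both 10 µM and 1 µM across a ten-kinase panel, activity expressed as percent of DMSO control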
T2 construct: purchased ReactionBiology
T2 sequence (O00311 whole entry): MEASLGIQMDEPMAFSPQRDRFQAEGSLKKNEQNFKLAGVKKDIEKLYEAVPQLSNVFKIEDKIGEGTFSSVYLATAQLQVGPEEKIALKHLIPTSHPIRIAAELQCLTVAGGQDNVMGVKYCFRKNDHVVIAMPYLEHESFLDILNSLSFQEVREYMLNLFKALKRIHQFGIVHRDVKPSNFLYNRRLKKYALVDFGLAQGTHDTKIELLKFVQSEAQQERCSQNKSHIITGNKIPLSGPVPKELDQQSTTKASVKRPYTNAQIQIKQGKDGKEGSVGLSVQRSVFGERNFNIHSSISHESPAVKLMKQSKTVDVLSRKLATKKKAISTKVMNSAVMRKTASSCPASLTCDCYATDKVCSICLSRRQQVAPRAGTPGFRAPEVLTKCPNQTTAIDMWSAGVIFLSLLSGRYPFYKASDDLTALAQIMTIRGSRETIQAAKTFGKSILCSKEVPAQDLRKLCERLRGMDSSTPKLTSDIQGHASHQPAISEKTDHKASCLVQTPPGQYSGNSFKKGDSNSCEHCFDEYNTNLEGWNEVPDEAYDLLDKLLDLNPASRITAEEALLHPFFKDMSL
T2 sequence (Q9UBU7 whole entry partner): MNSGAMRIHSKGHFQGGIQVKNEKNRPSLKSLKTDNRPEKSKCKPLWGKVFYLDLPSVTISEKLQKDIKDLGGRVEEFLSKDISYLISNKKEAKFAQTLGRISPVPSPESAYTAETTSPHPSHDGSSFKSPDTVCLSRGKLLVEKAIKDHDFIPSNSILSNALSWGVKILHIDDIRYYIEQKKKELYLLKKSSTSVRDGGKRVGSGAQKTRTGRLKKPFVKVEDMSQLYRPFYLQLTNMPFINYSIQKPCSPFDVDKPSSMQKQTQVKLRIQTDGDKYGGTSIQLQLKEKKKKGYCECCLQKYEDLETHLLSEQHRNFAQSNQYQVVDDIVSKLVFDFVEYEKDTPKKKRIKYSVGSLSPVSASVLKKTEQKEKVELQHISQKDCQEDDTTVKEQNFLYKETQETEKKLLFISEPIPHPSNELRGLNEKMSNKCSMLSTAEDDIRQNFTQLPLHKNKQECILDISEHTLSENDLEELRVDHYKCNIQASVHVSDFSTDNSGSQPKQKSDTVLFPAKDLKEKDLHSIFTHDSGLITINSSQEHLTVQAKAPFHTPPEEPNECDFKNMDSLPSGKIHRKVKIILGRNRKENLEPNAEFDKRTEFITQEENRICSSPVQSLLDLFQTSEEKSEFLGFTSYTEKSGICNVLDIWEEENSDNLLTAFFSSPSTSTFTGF

[3] = target: T3, MAP2K2 (Homo sapiens, UniProt P36507); settings: MEK2
T3 construct: purchased ReactionBiology
T3 sequence (P36507 whole entry): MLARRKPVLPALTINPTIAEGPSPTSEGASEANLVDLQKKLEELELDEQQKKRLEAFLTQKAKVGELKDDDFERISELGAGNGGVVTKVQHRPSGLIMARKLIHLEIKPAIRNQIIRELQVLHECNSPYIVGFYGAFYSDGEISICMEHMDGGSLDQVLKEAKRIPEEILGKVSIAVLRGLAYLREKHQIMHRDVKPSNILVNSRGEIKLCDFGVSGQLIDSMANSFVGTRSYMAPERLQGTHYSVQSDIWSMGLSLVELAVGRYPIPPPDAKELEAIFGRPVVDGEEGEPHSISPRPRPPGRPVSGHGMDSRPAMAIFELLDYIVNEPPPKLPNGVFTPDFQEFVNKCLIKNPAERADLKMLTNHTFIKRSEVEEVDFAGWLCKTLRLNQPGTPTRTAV

[4] = target: VEGFR2 (Homo sapiens, UniProt P35968); set-up: purchased ReactionBiology; settings: VEGFR2;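 also: VEGFR2 was one member of a ten-kinase screening panel testing marketed FDA-approved drugs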
VEGFR2, sequence (P35968 20-1356): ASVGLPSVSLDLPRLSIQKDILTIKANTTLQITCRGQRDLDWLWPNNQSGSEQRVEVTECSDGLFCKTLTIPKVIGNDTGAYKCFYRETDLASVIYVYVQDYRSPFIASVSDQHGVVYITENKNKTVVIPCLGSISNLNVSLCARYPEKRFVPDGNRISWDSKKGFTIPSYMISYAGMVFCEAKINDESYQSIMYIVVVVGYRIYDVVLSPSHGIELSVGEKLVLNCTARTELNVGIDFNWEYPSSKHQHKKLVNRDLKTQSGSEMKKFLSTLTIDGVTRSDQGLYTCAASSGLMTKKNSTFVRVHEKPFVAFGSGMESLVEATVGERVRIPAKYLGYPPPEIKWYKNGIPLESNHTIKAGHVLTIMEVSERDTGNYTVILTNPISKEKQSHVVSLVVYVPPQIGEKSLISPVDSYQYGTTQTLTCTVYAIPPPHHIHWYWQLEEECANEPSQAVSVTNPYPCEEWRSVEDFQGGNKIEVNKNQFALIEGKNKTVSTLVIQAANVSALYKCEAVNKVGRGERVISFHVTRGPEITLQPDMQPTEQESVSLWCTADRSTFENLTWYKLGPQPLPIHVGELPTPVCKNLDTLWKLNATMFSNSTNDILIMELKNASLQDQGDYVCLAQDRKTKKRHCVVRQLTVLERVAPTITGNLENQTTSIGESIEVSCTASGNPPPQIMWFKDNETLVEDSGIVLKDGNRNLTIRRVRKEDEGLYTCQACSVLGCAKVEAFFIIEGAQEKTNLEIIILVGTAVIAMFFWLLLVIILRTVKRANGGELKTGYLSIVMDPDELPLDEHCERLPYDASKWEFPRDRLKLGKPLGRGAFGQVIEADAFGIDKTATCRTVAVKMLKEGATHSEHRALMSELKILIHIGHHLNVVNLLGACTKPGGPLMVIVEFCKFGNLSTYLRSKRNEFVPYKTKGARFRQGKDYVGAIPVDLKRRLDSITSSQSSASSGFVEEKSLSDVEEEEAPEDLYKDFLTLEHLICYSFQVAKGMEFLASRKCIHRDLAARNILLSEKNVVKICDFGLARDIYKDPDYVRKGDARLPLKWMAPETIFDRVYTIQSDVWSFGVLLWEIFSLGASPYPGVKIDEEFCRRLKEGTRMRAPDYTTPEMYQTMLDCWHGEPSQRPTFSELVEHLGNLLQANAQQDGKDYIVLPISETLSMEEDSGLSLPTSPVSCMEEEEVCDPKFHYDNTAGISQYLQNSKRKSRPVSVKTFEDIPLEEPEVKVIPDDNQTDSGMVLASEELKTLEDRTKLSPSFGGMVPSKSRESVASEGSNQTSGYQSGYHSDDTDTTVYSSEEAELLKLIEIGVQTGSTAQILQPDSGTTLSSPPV

[5] = target: T4, NEK2 (Homo sapiens, UniProt P51955); settings: NEK2;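 also: FDA-approved drugs chosen by structure-based repositioning, each screened at 10 or 1 µM for kinase activity, expressed as percent of DMSO controls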
T4 construct: purchased ReactionBiology
T4 sequence (P51955 1-445): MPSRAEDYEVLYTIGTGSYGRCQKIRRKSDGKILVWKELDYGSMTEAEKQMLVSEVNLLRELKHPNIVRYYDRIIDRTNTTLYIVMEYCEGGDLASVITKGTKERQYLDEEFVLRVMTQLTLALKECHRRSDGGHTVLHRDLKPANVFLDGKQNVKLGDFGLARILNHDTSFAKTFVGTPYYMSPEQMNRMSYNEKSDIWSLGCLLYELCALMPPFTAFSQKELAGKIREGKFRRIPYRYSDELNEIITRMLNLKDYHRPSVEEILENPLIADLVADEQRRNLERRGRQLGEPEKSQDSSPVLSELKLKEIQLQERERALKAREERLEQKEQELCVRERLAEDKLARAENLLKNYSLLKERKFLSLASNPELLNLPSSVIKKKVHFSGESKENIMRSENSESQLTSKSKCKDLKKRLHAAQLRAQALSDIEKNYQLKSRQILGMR

[6] = target: T5, MST-4 (Homo sapiens, UniProt Q9P289); settings: MST4; for % Enzyme Activity (relative to DMSO controls), Data 1: replicate Data 1; for % Enzyme Activity (relative to DMSO controls), Data 2: replicate Data 2;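 as to all read-outs here: marketed FDA-approved drugs screened at 10 µM and 1 µM against a ten-kinase panel, remaining activity given as percent of DMSO controls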
T5 construct: purchased ReactionBiology
T5 sequence (Q9P289 whole entry): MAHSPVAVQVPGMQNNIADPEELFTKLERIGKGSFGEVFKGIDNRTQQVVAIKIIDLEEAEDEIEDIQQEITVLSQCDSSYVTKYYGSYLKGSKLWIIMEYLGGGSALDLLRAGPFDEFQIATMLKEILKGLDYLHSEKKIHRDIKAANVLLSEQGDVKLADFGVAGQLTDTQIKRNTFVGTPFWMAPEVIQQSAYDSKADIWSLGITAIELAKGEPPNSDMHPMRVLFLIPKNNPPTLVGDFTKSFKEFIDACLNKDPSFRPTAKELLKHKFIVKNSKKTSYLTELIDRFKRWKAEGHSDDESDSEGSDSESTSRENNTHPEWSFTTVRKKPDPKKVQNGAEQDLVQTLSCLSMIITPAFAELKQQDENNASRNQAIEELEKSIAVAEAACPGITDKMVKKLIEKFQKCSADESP

[7] = 1 uM, Average, read-out: % Enzyme Activity (relative to DMSO controls), Average
[8] = 1 uM, replicate Data 1, read-out: % Enzyme Activity (relative to DMSO controls), Data 1
[9] = 1 uM, replicate Data 2, read-out: % Enzyme Activity (relative to DMSO controls), Data 2
[10] = 10 uM, Average, read-out: % Enzyme Activity (relative to DMSO controls), Average
[11] = 10 uM, replicate Data 1, read-out: % Enzyme Activity (relative to DMSO controls), Data 1
[12] = 10 uM, replicate Data 2, read-out: % Enzyme Activity (relative to DMSO controls), Data 2

## CC(C)C[C@H](NC(=O)[C@H](Cc1ccccc1)NC(=O)c1cnccn1)B(O)O [Bortezomib]
[1]; 1 uM
  % Enzyme Activity (relative to DMSO controls), Average: 99.82%
  % Enzyme Activity (relative to DMSO controls), Data 1: 95.51%
  % Enzyme Activity (relative to DMSO controls), Data 2: 104.12%
[1]; 10 uM
  % Enzyme Activity (relative to DMSO controls), Average: 92.04%
  % Enzyme Activity (relative to DMSO controls), Data 1: 94.13%
  % Enzyme Activity (relative to DMSO controls), Data 2: 89.94%
[2]; 1 uM
  % Enzyme Activity (relative to DMSO controls), Average: 74.98%
  % Enzyme Activity (relative to DMSO controls), Data 1: 77.59%
  % Enzyme Activity (relative to DMSO controls), Data 2: 72.36%
[2]; 10 uM
  % Enzyme Activity (relative to DMSO controls), Average: 84.55%
  % Enzyme Activity (relative to DMSO controls), Data 1: 84.43%
  % Enzyme Activity (relative to DMSO controls), Data 2: 84.67%

## CN(C)CCCN1c2ccccc2Sc2ccc(Cl)cc21 [Chlorpromazine]
[3]; 1 uM, Average
  % Enzyme Activity (relative to DMSO controls), Average: 103.60%
[3]; 1 uM, replicate Data 1
  % Enzyme Activity (relative to DMSO controls), Data 1: 103.14%
[3]; 1 uM, replicate Data 2
  % Enzyme Activity (relative to DMSO controls), Data 2: 104.05%
[3]; 10 uM, Average
  % Enzyme Activity (relative to DMSO controls), Average: 101.38%
[3]; 10 uM, replicate Data 1
  % Enzyme Activity (relative to DMSO controls), Data 1: 102.43%
[3]; 10 uM, replicate Data 2
  % Enzyme Activity (relative to DMSO controls), Data 2: 100.33%
[4]; 1 uM, Average
  % Enzyme Activity (relative to DMSO controls), Average: 105.46%
[4]; 1 uM, replicate Data 1
  % Enzyme Activity (relative to DMSO controls), Data 1: 101.88%
[4]; 1 uM, replicate Data 2
  % Enzyme Activity (relative to DMSO controls), Data 2: 109.04%
[4]; 10 uM, Average
  % Enzyme Activity (relative to DMSO controls), Average: 105.67%
[4]; 10 uM, replicate Data 1
  % Enzyme Activity (relative to DMSO controls), Data 1: 105.24%
[4]; 10 uM, replicate Data 2
  % Enzyme Activity (relative to DMSO controls), Data 2: 106.1%

## C[C@H](O)[C@H](O)[C@H]1CNc2nc(N)[nH]c(=O)c2N1 [Sapropterin]
[5]; 1 uM, Average
  % Enzyme Activity (relative to DMSO controls), Average: 93.31%
[5]; 1 uM, replicate Data 1
  % Enzyme Activity (relative to DMSO controls), Data 1: 92.46%
[5]; 1 uM, replicate Data 2
  % Enzyme Activity (relative to DMSO controls), Data 2: 94.15%
[5]; 10 uM, Average
  % Enzyme Activity (relative to DMSO controls), Average: 93.52%
[5]; 10 uM, replicate Data 1
  % Enzyme Activity (relative to DMSO controls), Data 1: 92.39%
[5]; 10 uM, replicate Data 2
  % Enzyme Activity (relative to DMSO controls), Data 2: 94.64%
[6]; 1 uM
  % Enzyme Activity (relative to DMSO controls), Average: 87.71%
  % Enzyme Activity (relative to DMSO controls), Data 1: 88.88%
  % Enzyme Activity (relative to DMSO controls), Data 2: 86.54%
[6]; 10 uM
  % Enzyme Activity (relative to DMSO controls), Average: 87.19%
  % Enzyme Activity (relative to DMSO controls), Data 1: 96.6%
  % Enzyme Activity (relative to DMSO controls), Data 2: 77.78%
[4]; 1 uM, Average
  % Enzyme Activity (relative to DMSO controls), Average: 98.99%
[4]; 1 uM, replicate Data 1
  % Enzyme Activity (relative to DMSO controls), Data 1: 101.37%
[4]; 1 uM, replicate Data 2
  % Enzyme Activity (relative to DMSO controls), Data 2: 96.61%
[4]; 10 uM, Average
  % Enzyme Activity (relative to DMSO controls), Average: 98.14%
[4]; 10 uM, replicate Data 1
  % Enzyme Activity (relative to DMSO controls), Data 1: 98.48%
[4]; 10 uM, replicate Data 2
  % Enzyme Activity (relative to DMSO controls), Data 2: 97.79%

## N[C@@H](CC(=O)N1CCn2c(nnc2C(F)(F)F)C1)Cc1cc(F)c(F)cc1F [Sitagliptin]
[5]; [7]
  remaining activity at 1 µM: 92.4%
[5]; [8]
  remaining activity at 1 µM: 89.3%
[5]; [9]
  remaining activity at 1 µM: 95.5%
[5]; [10]
  remaining activity at 10 µM: 86.5%
[5]; [11]
  remaining activity at 10 µM: 82.7%
[5]; [12]
  remaining activity at 10 µM: 90.3%
[3]; [7]
  remaining activity at 1 µM: 100%
[3]; [8]
  remaining activity at 1 µM: 101%
[3]; [9]
  remaining activity at 1 µM: 99.3%
[3]; [10]
  remaining activity at 10 µM: 94.3%
[3]; [11]
  remaining activity at 10 µM: 96.2%
[3]; [12]
  remaining activity at 10 µM: 92.4%
[4]; [7]
  remaining activity at 1 µM: 97.9%
[4]; [8]
  remaining activity at 1 µM: 100%
[4]; [9]
  remaining activity at 1 µM: 95.6%
[4]; [10]
  remaining activity at 10 µM: 99.7%
[4]; [11]
  remaining activity at 10 µM: 99.4%
[4]; [12]
  remaining activity at 10 µM: 100%
